Experimental data published in BindingDB's records for doi:10.1021/acs.jmedchem.9b01508 (Virginia Tech, 2020).

Assay: Inhibition of human SphK2 expressed in Saccharomyces cerevisiae KYA1 assessed as yeast growth measured after 24 hrs

Which EC50 does the source give for `N=C(N)N1CCC[C@H]1c1nc(-c2ccc(OCc3ccc(C(F)(F)F)cc3)c(C3CC3)c2)no1` here?
Its EC50 is 50 nM.

With `C=CCc1cc(-c2noc([C@@H]3CCCN3C(=N)N)n2)ccc1OCc1ccc(C(F)(F)F)cc1` as the molecule, how does the EC50 read?
The EC50 was 84 nM.

With `CCCc1cc(-c2noc([C@@H]3CCCN3C(=N)N)n2)ccc1OCc1ccc(C(F)(F)F)cc1` as the molecule, how does the EC50 read?
Its EC50 is 37 nM.

With `CC(C)c1cc(-c2noc([C@@H]3CCCN3C(=N)N)n2)ccc1OCc1ccc(C(F)(F)F)cc1` as the molecule, how does the EC50 read?
Its EC50 is 32 nM.

With `CC(C)(C)c1cc(-c2noc([C@@H]3CCCN3C(=N)N)n2)ccc1OCc1ccc(C(F)(F)F)cc1` as the molecule, how does the EC50 read?
The EC50 was 73 nM.

For `CCc1cc(-c2noc([C@@H]3CCCN3C(=N)N)n2)ccc1OCc1ccc(C(F)(F)F)cc1`, which EC50 is on record?
Its EC50 is 146 nM.

With `N=C(N)N1CCC[C@H]1c1nc(-c2ccc(OCc3ccc(C(F)(F)F)cc3)c(C(F)(F)F)c2)no1` as the molecule, how does the EC50 read?
Its EC50 is 59 nM.
